Residues, ends and D or L forms follow the SMILES beside them.
How the values were obtained:
[1] = target: T1, Substance-K receptor (Homo sapiens) (UniProt P21452); test: Displacement of [125I]-NKA from NK2R (unknown origin) transfected in CHO cells at 10 uM by gamma counting analysis; assay type: cell-based
T1 sequence (whole entry): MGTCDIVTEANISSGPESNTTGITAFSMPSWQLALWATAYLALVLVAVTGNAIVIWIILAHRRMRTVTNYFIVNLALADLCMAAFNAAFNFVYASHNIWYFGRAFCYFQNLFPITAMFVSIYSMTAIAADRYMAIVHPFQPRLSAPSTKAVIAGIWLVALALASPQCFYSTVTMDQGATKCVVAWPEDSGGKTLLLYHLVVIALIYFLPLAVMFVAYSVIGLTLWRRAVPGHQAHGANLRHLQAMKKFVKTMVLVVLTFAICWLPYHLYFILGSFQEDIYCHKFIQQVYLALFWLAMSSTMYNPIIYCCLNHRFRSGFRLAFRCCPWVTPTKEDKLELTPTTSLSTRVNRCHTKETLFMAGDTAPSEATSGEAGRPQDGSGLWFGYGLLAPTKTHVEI

[2] = target: Substance-P receptor (Homo sapiens) (UniProt P25103); test: Displacement of [125I]-BH-SP from NK1R (unknown origin) transfected in CHO cells at 10 uM by gamma counting analysis; assay type: cell-based
Neuromedin-K receptor [3] = target: T2, Neuromedin-K receptor (Homo sapiens, UniProt P29371); test: Agonist activity at NK3R (unknown origin) transfected in CHO cells assessed as calcium influx […]; assay type: functional, cell-based
T2 sequence (P29371 whole entry): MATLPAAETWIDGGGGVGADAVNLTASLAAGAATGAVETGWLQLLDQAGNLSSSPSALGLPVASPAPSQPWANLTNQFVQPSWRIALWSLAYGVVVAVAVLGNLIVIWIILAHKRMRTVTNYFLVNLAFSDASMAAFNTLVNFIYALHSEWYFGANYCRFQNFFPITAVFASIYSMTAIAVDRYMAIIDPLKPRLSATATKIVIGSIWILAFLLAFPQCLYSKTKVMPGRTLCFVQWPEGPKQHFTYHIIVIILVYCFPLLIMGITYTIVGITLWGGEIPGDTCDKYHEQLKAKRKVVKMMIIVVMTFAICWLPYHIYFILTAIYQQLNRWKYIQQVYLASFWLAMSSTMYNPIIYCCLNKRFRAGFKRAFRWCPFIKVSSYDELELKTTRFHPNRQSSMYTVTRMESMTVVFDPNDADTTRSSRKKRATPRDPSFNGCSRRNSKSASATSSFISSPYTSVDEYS

Neuromedin-K receptor [4] = target: T2, Neuromedin-K receptor; test: Displacement of ([125I]-His3, MePhe7)-NKB from NK3R (unknown origin) transfected in CHO cells by gamma counting analysis; assay type: cell-based

Substance-P receptor (Homo sapiens), sequence (P25103 whole entry): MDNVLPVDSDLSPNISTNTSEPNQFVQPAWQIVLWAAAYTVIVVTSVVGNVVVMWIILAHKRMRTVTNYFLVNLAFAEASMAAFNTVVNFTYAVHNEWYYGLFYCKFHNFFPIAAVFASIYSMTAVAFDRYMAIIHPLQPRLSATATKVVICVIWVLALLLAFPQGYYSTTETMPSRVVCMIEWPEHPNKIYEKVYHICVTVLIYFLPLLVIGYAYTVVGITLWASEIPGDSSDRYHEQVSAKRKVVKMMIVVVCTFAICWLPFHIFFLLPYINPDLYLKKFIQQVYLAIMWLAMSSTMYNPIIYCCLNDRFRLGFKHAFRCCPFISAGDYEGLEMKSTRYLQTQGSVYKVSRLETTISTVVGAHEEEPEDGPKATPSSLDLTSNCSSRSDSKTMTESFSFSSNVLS

Row | Compound | inhibition [1] [%] | inhibition [2] [%] | EC50 (Neuromedin-K receptor [3]) [nM] | IC50 (Neuromedin-K receptor [4]) [nM]
1 | CSCC[C@H](NC(=O)[C@H](CC(C)C)NC(=O)CNC(=O)[C@H](Cc1ccccc1)N(C)C(=O)[C@H](Cc1ccccc1)NC(=O)[C@H](Cc1ccc(O)cc1)NC(=O)[C@H](CC(=O)O)NC(=O)[C@H](Cc1cnc[nH]1)NC(=O)[C@H](CCSC)NC(=O)[C@@H](N)CC(=O)O)C(N)=O (HELM PEPTIDE1{D.M.H.D.Y.F.[meF].G.L.M.[am]}$$$$V2.0) | 51 | < 10 | 0.072 | 1.5
2 | CC[C@H](C)[C@H](NC(=O)[C@H](CC(=O)O)NC(=O)[C@H](Cc1cnc[nH]1)NC(=O)[C@H](CCSC)NC(=O)[C@@H](N)CC(=O)O)C(=O)N[C@@H](Cc1ccccc1)C(=O)N(C)[C@@H](Cc1ccccc1)C(=O)NCC(=O)N[C@@H](CC(C)C)C(=O)N[C@@H](CCSC)C(N)=O (HELM PEPTIDE1{D.M.H.D.I.F.[meF].G.L.M.[am]}$$$$V2.0) | 35 | < 10 | 0.06 | 4
3 | H-KPRPDQFYGLM-NH2 | 95 | 101 | – | –
4 | CSCC[C@H](NC(=O)[C@H](CC(C)C)NC(=O)CNC(=O)[C@H](Cc1ccccc1)N(C)C(=O)[C@H](Cc1ccccc1)NC(=O)[C@H](CC(C)C)NC(=O)[C@H](CC(=O)O)NC(=O)[C@H](Cc1cnc[nH]1)NC(=O)[C@H](CCSC)NC(=O)[C@@H](N)CC(=O)O)C(N)=O (HELM PEPTIDE1{D.M.H.D.L.F.[meF].G.L.M.[am]}$$$$V2.0) | 29 | < 10 | 0.051 | 6.9
5 | CSCC[C@H](NC(=O)[C@H](CC(C)C)NC(=O)CNC(=O)[C@H](Cc1ccccc1)N(C)C(=O)[C@H](Cc1ccccc1)NC(=O)[C@H](CCC(N)=O)NC(=O)[C@H](CC(=O)O)NC(=O)[C@H](Cc1cnc[nH]1)NC(=O)[C@H](CCSC)NC(=O)[C@@H](N)CC(=O)O)C(N)=O (HELM PEPTIDE1{D.M.H.D.Q.F.[meF].G.L.M.[am]}$$$$V2.0) | 21 | 24 | 0.043 | 4.6
6 | CSCC[C@H](NC(=O)[C@H](CC(C)C)NC(=O)CNC(=O)[C@H](Cc1ccccc1)N(C)C(=O)[C@H](Cc1ccccc1)NC(=O)[C@H](CCC(N)=O)NC(=O)[C@H](CC(=O)O)NC(=O)[C@H](CO)NC(=O)[C@H](CCCCN)NC(=O)[C@@H]1CCCN1C(=O)[C@@H](NC(=O)[C@@H](N)CC(=O)O)C(C)C)C(N)=O (HELM PEPTIDE1{D.V.P.K.S.D.Q.F.[meF].G.L.M.[am]}$$$$V2.0) | 11 | 46 | 0.038 | 13
7 | CSCC[C@H](NC(=O)[C@H](CC(C)C)NC(=O)CNC(=O)[C@H](Cc1ccccc1)N(C)C(=O)[C@H](Cc1ccccc1)NC(=O)[C@H](C)NC(=O)[C@H](CC(=O)O)NC(=O)[C@H](Cc1cnc[nH]1)NC(=O)[C@H](CCSC)NC(=O)[C@@H](N)CC(=O)O)C(N)=O (HELM PEPTIDE1{D.M.H.D.A.F.[meF].G.L.M.[am]}$$$$V2.0) | 33 | < 10 | 0.012 | 4.4
8 | CSCC[C@H](NC(=O)[C@H](CC(C)C)NC(=O)CNC(=O)[C@H](Cc1ccccc1)N(C)C(=O)[C@H](Cc1ccccc1)NC(=O)[C@H](Cc1ccccc1)NC(=O)[C@H](CC(=O)O)NC(=O)[C@H](Cc1cnc[nH]1)NC(=O)[C@H](CCSC)NC(=O)[C@@H](N)CC(=O)O)C(N)=O (HELM PEPTIDE1{D.M.H.D.F.F.[meF].G.L.M.[am]}$$$$V2.0) | 57 | < 10 | 0.013 | 3
9 | CSCC[C@H](NC(=O)[C@H](CC(C)C)NC(=O)CNC(=O)[C@H](Cc1ccccc1)N(C)C(=O)[C@H](Cc1ccccc1)NC(=O)[C@H](C)NC(=O)[C@H](CC(=O)O)NC(=O)[C@H](CCCCN)NC(=O)[C@H](CO)NC(=O)[C@@H]1CCCN1C(=O)[C@@H]1CCC(=O)N1)C(N)=O (HELM PEPTIDE1{[Glp].P.S.K.D.A.F.[meF].G.L.M.[am]}$$$$V2.0) | 26 | 48 | 0.071 | 7
10 | CSCC[C@H](NC(=O)[C@H](CC(C)C)NC(=O)CNC(=O)[C@H](Cc1ccccc1)N(C)C(=O)[C@H](Cc1ccccc1)NC(=O)[C@H](CC(=O)O)NC(=O)[C@H](CC(=O)O)NC(=O)[C@@H]1CCCN1C(=O)[C@H](CCCN=C(N)N)NC(=O)[C@@H]1CCCN1C(=O)[C@@H](N)CCCCN)C(N)=O (HELM PEPTIDE1{K.P.R.P.D.D.F.[meF].G.L.M.[am]}$$$$V2.0) | – | – | 5.04 | 31
11 | CSCC[C@H](NC(=O)[C@H](CC(C)C)NC(=O)CNC(=O)[C@H](Cc1ccccc1)N(C)C(=O)[C@H](Cc1ccccc1)NC(=O)[C@H](CC(=O)O)NC(=O)[C@H](CC(=O)O)NC(=O)CNC(=O)[C@@H](NC(=O)[C@@H](N)CC(=O)O)[C@@H](C)O)C(N)=O (HELM PEPTIDE1{D.T.G.D.D.F.[meF].G.L.M.[am]}$$$$V2.0) | < 10 | < 10 | 0.11 | 81
12 | CSCC[C@H](NC(=O)[C@H](CC(C)C)NC(=O)CNC(=O)[C@H](Cc1ccccc1)N(C)C(=O)[C@H](Cc1ccccc1)NC(=O)[C@H](CC(=O)O)NC(=O)[C@H](CC(=O)O)NC(=O)[C@H](CO)NC(=O)[C@H](CCCCN)NC(=O)[C@@H]1CCCN1C(=O)[C@@H](NC(=O)[C@@H](N)CC(=O)O)C(C)C)C(N)=O (HELM PEPTIDE1{D.V.P.K.S.D.D.F.[meF].G.L.M.[am]}$$$$V2.0) | < 10 | < 10 | 0.085 | 27
13 | CSCC[C@H](NC(=O)[C@H](CC(C)C)NC(=O)CNC(=O)[C@H](Cc1ccccc1)N(C)C(=O)[C@H](Cc1ccccc1)NC(=O)[C@H](CC(=O)O)NC(=O)[C@H](CC(N)=O)NC(=O)[C@@H]1CCCN1C(=O)[C@H](CO)NC(=O)[C@@H]1CCCN1C(=O)[C@@H]1CCC(=O)N1)C(N)=O (HELM PEPTIDE1{[Glp].P.S.P.N.D.F.[meF].G.L.M.[am]}$$$$V2.0) | < 10 | < 10 | 0.13 | 17
14 | CSCC[C@H](NC(=O)[C@H](CC(C)C)NC(=O)CNC(=O)[C@H](Cc1ccc(O)cc1)NC(=O)[C@H](Cc1ccccc1)NC(=O)[C@H](CCCCN)NC(=O)[C@H](CC(N)=O)NC(=O)[C@@H]1CCCN1C(=O)[C@H](CC(=O)O)NC(=O)[C@H](C)NC(=O)[C@@H]1CCC(=O)N1)C(N)=O [PHYSALAEMIN] | – | – | 3.36 | 1550
15 | CSCC[C@H](NC(=O)[C@H](CC(C)C)NC(=O)CNC(=O)[C@H](Cc1ccccc1)N(C)C(=O)[C@H](Cc1ccccc1)NC(=O)[C@H](CCCNC(=N)N)NC(=O)[C@H](CC(=O)O)NC(=O)[C@H](Cc1cnc[nH]1)NC(=O)[C@H](CCSC)NC(=O)[C@@H](N)CC(=O)O)C(N)=O (HELM PEPTIDE1{D.M.H.D.R.F.[meF].G.L.M.[am]}$$$$V2.0) | 62 | 60 | – | –
16 | CSCC[C@H](NC(=O)[C@H](CC(C)C)NC(=O)CNC(=O)[C@H](Cc1ccccc1)N(C)C(=O)[C@H](Cc1ccccc1)NC(=O)[C@H](CC(=O)O)NC(=O)[C@H](CC(=O)O)NC(=O)[C@@H]1CCCN1C(=O)[C@H](CCCNC(=N)N)NC(=O)[C@@H]1CCCN1C(=O)[C@@H](N)CCCCN)C(N)=O (HELM PEPTIDE1{K.P.R.P.D.D.F.[meF].G.L.M.[am]}$$$$V2.0) | < 10 | 26 | – | –
17 | H-KPRPDQFYGLM-NH2 [BUFOKININ] | – | – | 10.7 | 2990
18 | CSCC[C@H](NC(=O)[C@H](CC(C)C)NC(=O)CNC(=O)[C@@H](NC(=O)[C@H](Cc1ccccc1)NC(=O)[C@H](CCC(N)=O)NC(=O)[C@H](CC(=O)O)NC(=O)[C@H](CO)NC(=O)[C@H](CCCCN)NC(=O)[C@@H]1CCCN1C(=O)[C@@H](NC(=O)[C@@H](N)CC(=O)O)C(C)C)C(C)C)C(N)=O [KASSININ] | – | – | 0.21 | 100
19 | CC[C@H](C)[C@H](NC(=O)[C@H](Cc1ccccc1)NC(=O)[C@H](C)NC(=O)[C@H](CC(=O)O)NC(=O)[C@H](CCCCN)NC(=O)[C@H](CO)NC(=O)[C@@H]1CCCN1C(=O)[C@@H]1CCC(=O)N1)C(=O)NCC(=O)N[C@@H](CC(C)C)C(=O)N[C@@H](CCSC)C(N)=O [ELEDOISIN] (HELM PEPTIDE1{[Glp].P.S.K.D.A.F.I.G.L.M.[am]}$$$$V2.0) | 95 | 100 | – | 96
20 | CSCC[C@H](NC(=O)[C@H](CC(C)C)NC(=O)CNC(=O)[C@H](Cc1ccccc1)N(C)C(=O)[C@H](Cc1ccccc1)NC(=O)[C@H](CCCN=C(N)N)NC(=O)[C@H](CC(=O)O)NC(=O)[C@H](Cc1cnc[nH]1)NC(=O)[C@H](CCSC)NC(=O)[C@@H](N)CC(=O)O)C(N)=O (HELM PEPTIDE1{D.M.H.D.R.F.[meF].G.L.M.[am]}$$$$V2.0) | – | – | 0.08 | 2.5

Reference: ChEMBL document CHEMBL2346651, “Structure-activity relationship study of tachykinin peptides for the development of novel neurokinin-3 receptor selective agonists” (Bioorg Med Chem, 2013)
